Assays:
[1] = molecular target: D(2) dopamine receptor (Homo sapiens, UniProt P14416); test: Displacement of [3H]-raclopride from human D2L receptor expressed in HEK293 cells measured after 1 hr by Microbeta plate reader method; assay type: cell-based
[2] = Permeability of compound at pH 7.4 by PAMPA assay
[3] = Cytotoxicity against CHO-K1 cells measured after 24 hrs by MTT assay; assay type: toxicity, cell-based, Cricetulus griseus; conditions: Chinese hamster
[4] = molecular target: 5-hydroxytryptamine receptor 2A (Homo sapiens, UniProt P28223); test: Displacement of [3H]-ketanserin from human 5-HT2A receptor expressed in CHO-K1 cells measured after 1.5 hrs by Microbeta plate reader method; assay type: cell-based
Sequence of 5-hydroxytryptamine receptor 2A (P28223 whole entry): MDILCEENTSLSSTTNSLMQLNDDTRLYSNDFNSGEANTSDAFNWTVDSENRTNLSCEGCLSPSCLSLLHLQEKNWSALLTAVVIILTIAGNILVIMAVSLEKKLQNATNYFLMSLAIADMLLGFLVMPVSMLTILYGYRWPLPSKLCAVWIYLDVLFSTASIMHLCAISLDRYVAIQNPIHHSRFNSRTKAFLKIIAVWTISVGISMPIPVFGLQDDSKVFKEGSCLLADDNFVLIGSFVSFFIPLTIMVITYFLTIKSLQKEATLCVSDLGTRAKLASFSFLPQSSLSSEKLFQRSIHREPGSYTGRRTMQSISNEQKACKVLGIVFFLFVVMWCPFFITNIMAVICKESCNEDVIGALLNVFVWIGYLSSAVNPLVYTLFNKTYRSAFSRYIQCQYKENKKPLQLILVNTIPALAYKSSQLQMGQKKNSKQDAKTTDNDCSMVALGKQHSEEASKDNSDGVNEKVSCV

[5] = molecular target: T1, 5-hydroxytryptamine receptor 3A (Cavia porcellus, UniProt O70212); test: Antagonist activity at 5-HT3 receptor in guinea-pig ileum assessed as inhibition of 5HT-induced contraction; assay type: tissue-based
T1 sequence (O70212 whole entry): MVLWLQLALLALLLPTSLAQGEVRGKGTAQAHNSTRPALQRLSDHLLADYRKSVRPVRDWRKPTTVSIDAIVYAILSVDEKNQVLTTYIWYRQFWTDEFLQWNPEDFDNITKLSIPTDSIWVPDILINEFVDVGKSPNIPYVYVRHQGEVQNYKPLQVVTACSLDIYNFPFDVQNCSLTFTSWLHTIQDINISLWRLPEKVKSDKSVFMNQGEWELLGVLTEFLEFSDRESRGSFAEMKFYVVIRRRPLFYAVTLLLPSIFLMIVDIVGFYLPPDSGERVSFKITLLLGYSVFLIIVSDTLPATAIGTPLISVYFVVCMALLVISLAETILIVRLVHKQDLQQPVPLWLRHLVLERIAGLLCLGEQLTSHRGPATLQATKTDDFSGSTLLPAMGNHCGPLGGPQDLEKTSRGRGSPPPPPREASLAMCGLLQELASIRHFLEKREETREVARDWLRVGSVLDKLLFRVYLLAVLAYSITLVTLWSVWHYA

[6] = molecular target: T2, 5-hydroxytryptamine receptor 3A (Homo sapiens) (UniProt P46098); test: Competitive binding affinity towards 5-HT3 receptor (unknown origin); conditions: filed as antagonist
T2 sequence (whole entry): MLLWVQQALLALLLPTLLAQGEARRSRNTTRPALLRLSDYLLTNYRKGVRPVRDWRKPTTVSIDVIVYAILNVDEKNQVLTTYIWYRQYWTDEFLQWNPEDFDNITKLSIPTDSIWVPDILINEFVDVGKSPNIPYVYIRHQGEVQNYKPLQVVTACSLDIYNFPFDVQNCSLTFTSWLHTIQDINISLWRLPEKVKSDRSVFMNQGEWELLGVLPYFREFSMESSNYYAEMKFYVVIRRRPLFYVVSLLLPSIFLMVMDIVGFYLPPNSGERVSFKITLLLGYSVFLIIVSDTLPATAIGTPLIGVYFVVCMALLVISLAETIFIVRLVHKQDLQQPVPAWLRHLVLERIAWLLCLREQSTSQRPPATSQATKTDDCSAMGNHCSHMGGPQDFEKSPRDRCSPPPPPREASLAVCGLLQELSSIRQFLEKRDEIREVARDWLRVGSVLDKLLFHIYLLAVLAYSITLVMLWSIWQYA

[7] = molecular target: T3, 5-hydroxytryptamine receptor 1A (Homo sapiens, UniProt P08908); test: Displacement of [3H]-8-OH-DPAT from human 5-HT1A receptor expressed in HEK293 cells measured after 1 hr by Microbeta plate reader method; assay type: cell-based
T3 sequence (P08908 whole entry): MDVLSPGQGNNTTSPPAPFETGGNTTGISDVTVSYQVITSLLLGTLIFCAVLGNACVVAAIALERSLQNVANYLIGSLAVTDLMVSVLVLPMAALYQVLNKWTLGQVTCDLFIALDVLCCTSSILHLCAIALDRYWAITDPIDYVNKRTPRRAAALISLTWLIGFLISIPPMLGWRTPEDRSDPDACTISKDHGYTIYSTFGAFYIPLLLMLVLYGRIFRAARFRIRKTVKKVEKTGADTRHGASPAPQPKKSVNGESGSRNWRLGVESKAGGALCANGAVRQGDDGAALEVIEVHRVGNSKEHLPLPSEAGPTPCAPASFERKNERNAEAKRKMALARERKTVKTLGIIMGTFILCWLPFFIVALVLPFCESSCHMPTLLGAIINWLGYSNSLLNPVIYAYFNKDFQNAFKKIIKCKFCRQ

[8] = molecular target: 5-hydroxytryptamine receptor 7 (Homo sapiens, UniProt P34969); test: Displacement of [3H]-5-CT from human 5-HT7b receptor expressed in HEK293 cells measured after 1 hr by Microbeta plate reader method; assay type: cell-based
Sequence of 5-hydroxytryptamine receptor 7 (P34969 whole entry): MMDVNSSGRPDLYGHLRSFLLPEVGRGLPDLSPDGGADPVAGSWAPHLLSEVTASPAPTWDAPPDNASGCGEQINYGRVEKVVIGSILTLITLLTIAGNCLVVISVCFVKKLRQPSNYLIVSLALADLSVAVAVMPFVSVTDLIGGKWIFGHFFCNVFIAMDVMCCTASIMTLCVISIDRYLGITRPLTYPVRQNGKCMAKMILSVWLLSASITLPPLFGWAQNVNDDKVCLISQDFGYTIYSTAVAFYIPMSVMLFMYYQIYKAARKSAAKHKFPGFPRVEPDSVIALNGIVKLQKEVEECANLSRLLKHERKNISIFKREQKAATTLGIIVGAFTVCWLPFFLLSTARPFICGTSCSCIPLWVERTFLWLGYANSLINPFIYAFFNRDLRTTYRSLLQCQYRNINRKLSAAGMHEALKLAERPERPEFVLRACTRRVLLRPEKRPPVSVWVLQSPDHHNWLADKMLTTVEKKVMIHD

[9] = Cmax in male Wistar rat plasma at 2 mg/kg, ip; assay type: ADME, organism-based; parameters: dose 2 mg/kg, route ip
[10] = Tmax in male Wistar rat brain at 2 mg/kg, ip; assay type: ADME, organism-based
[11] = AUC in male Wistar rat plasma at 2 mg/kg, ip; assay type: ADME, organism-based; parameters: dose 2 mg/kg, route ip; conditions: in vivo
[12] = MRT in male Wistar rat brain at 2 mg/kg, ip; assay type: ADME, organism-based
[13] = Toxicity in male Wistar rat assessed as abnormalities in liver at 2 mg/kg, ip; assay type: organism-based; conditions: in vivo
[14] = Toxicity in male Wistar rat assessed as abnormalities in kidney at 2 mg/kg, ip; assay type: organism-based; conditions: in vivo
[15] = Toxicity in male Wistar rat assessed as adverse effects at 2 mg/kg, ip; assay type: organism-based; conditions: in vivo
[16] = Toxicity in male Wistar rat assessed as effect on creatine kinase level in plasma at 2 mg/kg, ip; assay type: organism-based; conditions: in vivo
[17] = Tmax in male Wistar rat plasma at 2 mg/kg, ip; assay type: ADME, organism-based
[18] = Cmax in male Wistar rat brain at 2 mg/kg, ip; assay type: ADME, organism-based; parameters: dose 2 mg/kg, route ip
[19] = Half-life in male Wistar rat brain at 2 mg/kg, ip; assay type: ADME, organism-based
[20] = MRT in male Wistar rat plasma at 2 mg/kg, ip; assay type: ADME, organism-based
[21] = Half-life in male Wistar rat plasma at 2 mg/kg, ip; assay type: ADME, organism-based
[22] = Toxicity in male Wistar rat assessed as effect on AST level at 2 mg/kg, ip; assay type: organism-based; conditions: in vivo
[23] = Toxicity in male Wistar rat assessed as effect on ALT level at 2 mg/kg, ip; assay type: organism-based; conditions: in vivo
[24] = AUC in male Wistar rat brain at 2 mg/kg, ip; assay type: ADME, organism-based; parameters: dose 2 mg/kg, route ip; conditions: in vivo
[25] = Toxicity in male Wistar rat assessed as maximum tolerated dose administered intraperitoneally; conditions: in vivo, route ip

Sequence of D(2) dopamine receptor (P14416 whole entry): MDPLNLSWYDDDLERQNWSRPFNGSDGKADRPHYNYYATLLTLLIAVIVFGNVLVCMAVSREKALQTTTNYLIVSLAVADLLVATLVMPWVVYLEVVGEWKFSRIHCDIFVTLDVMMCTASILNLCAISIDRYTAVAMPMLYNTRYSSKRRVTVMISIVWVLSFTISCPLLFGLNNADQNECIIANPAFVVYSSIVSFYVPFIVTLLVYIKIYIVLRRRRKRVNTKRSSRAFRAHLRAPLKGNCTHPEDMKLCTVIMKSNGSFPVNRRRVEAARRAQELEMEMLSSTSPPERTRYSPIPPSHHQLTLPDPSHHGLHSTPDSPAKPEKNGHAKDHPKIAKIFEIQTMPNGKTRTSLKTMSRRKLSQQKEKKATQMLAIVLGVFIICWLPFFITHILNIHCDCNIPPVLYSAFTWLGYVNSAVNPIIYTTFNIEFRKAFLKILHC

Row | SMILES | Ki [1] [µM] | Papp [2] [×10⁻⁶ cm/s] | IC50 at 24 h [3] [µM] | Ki [4] [µM] | IC50 [5] [µM] | further results
1 | N#Cc1cccnc1N1CCN(CCCN2CCN(c3ccccc3)CC2)CC1 | 0.77 | 25 | 770 | 13 | > 3 | –
2 | N#Cc1cccnc1N1CCN(CCCOc2ccc3c(c2)NC(=O)CC3)CC1 | 0.081 | 14 | 350 | 5.3 | – | pKb [6]: 5
3 | N#Cc1cccnc1N1CCN(CCN2CCN(c3cccc(Cl)c3Cl)CC2)CC1 | 0.21 | 7.9 | 220 | 1.3 | 1 | –
4 | Cc1nccn1CC1CCc2c(c3ccccc3n2C)C1=O (centres undefined) [ONDANSETRON] | > 10 | – | – | – | – | Ki [7]: > 10 µM; Ki [8]: > 1 µM; pKb [6]: 7.36
5 | CN(C)CCCN1c2ccccc2Sc2ccc(Cl)cc21 [CHLORPROMAZINE] | – | 9.6 | – | – | – | –
6 | COc1ccc(N2CCN(CCCN3CCN(c4ncccc4C#N)CC3)CC2)cc1 | 1.5 | 24 | 360 | 40 | 3 | –
7 | O=C(c1ccccc1)N1CCN(CCCN2CCN(c3ccccc3)CC2)CC1 | 2.1 | 20 | 1300 | 6.5 | – | –
8 | N#Cc1cccnc1N1CCN(CCCN2CCN(c3cccc(Cl)c3Cl)CC2)CC1 | – | 5.9 | – | 0.47 | 0.3 | Ki [7]: 0.019 µM; Cmax [9]: 97.9 nM; Tmax [10]: 1 h; AUC [11]: 10886.71 nmol·min/L; MRT [12]: 7.65 h; Activity [13]: Non-Toxic; Activity [14]: Non-Toxic; Activity [15]: Non-Toxic; Ki [8]: 0.57 µM; Activity [16]: Non-Toxic; Tmax [17]: 3 min; Cmax [18]: 266 nM; half-life [19]: 4.39 h; MRT [20]: 3.79 h; half-life [21]: 1.67 h; Activity [22]: Non-Toxic; Activity [23]: Non-Toxic; AUC [24]: 88483.21 nmol·min/L; MTD [25]: 0.2 mg/kg
9 | COc1ccccc1N1CCN(CCCN2CCN(C(=O)c3ccccn3)CC2)CC1 | 0.59 | 8.7 | 1900 | – | – | –
10 | O=C(c1ccccc1)N1CCN(CCCN2CCN(c3cccc(Cl)c3Cl)CC2)CC1 | 0.12 | 23 | 110 | 1.7 | > 3 | –
11 | COc1ccccc1N1CCN(CCN2CCN(c3ncccc3C#N)CC2)CC1 | 0.13 | 14 | 780 | – | > 10 | –
12 | CN1CCN(c2nc3ncccc3cc2C#N)CC1 | – | – | – | – | – | Kb ([5]; read-out: pA2 (converted)): 0.0398 µM
